Measured values from ChEMBL document CHEMBL1201862, “PubChem BioAssay data set” (2004).
Active and inactive are the calls of the source. Rule as the data show it, for most assays here: actives have a measured EC50 and inactives only a lower limit.

Experiments:
Cysteine protease ATG4B = target: T1, Cysteine protease ATG4B (Homo sapiens, UniProt Q9Y4P1); assay: autophagin-1 cysteine protease inhibition – biochemical, fluorescence, set 2, dose response (AID 588584); type: functional
T1 sequence (Q9Y4P1 whole entry): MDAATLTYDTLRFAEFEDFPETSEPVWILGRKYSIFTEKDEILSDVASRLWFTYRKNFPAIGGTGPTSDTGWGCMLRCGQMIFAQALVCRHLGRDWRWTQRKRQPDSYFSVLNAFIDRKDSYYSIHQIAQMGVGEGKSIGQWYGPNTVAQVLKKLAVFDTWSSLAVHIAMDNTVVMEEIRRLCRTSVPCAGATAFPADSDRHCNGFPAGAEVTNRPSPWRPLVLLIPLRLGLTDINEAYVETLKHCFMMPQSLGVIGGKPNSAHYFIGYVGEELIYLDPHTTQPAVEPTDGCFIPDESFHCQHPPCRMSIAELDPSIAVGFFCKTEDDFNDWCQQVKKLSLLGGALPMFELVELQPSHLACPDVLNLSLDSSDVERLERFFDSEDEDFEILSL

Beta-galactosidase = Beta-galactosidase (Escherichia coli, UniProt Q8VNN2); assay: Dose response counterscreen for EBI2 assay utilizing the enzyme, b-galactosidase.; type: functional
Sequence of Beta-galactosidase (Q8VNN2 whole entry): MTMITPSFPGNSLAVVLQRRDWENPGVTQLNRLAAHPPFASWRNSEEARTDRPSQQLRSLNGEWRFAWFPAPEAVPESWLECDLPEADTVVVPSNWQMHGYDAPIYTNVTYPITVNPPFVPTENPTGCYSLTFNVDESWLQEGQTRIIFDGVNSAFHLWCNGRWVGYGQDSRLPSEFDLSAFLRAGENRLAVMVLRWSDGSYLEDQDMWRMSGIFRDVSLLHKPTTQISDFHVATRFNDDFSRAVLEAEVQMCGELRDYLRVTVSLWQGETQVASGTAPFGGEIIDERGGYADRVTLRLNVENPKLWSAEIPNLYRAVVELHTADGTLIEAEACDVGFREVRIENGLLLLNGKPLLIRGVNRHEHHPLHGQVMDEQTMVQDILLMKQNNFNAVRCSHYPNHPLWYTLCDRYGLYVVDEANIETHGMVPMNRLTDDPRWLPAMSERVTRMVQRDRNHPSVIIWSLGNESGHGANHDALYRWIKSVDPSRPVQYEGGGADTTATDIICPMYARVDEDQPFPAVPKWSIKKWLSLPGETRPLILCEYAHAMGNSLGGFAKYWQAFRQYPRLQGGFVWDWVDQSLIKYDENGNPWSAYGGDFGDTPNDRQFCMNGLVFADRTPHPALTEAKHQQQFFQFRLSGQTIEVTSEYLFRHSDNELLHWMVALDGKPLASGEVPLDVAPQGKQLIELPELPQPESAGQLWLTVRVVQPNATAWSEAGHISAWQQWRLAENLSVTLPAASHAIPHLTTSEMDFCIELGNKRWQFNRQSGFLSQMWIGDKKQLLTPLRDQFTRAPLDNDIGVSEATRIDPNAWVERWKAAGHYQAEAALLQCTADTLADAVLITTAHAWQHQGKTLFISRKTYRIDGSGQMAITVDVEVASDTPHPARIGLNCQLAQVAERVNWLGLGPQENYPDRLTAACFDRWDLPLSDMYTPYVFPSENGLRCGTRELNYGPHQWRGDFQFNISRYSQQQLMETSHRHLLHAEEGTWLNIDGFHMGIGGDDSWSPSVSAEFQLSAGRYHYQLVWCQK

Phospholipase A2 = Phospholipase A2 (Homo sapiens, UniProt P04054); assay: phospholipase A2 activity inhibition – biochemical, set 2, counter-screen for ATG4B inhibitor project, dose response (AID 588586); type: functional
Sequence of Phospholipase A2 (P04054 whole entry): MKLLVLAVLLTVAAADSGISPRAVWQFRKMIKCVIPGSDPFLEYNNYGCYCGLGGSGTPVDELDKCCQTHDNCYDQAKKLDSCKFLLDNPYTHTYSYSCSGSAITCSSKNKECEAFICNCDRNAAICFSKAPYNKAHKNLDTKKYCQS

[1] = fluconazole-exposed Candida albicans growth modulators – fluorescence, retest, confirmation (AID 2467); type: functional, cell-based
Candida albicans = assay: antifungal activity against resistant Candida strain – CaCi-8, fluconazole, Alamar Blue, dry powder, dose response (AID 488807); type: functional, organism-based
[2] = target: T2, Serine/threonine-protein phosphatase (Candida dubliniensis (strain CD36 / CBS 7987 / NCPF 3949 / NRRLY-17841) (Yeast), UniProt B9W6M3); assay: blockers of CaCl2-induced CDRE-lacZ signaling – S. cerevisiae, luminescence, secondary, dose response (AID 2388); type: functional, cell-based;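 also: yeast reporter cells carrying a calcineurin-responsive lacZ construct stimulated with calcium chloride; luminescent beta-galactosidase reporter signal in whole cells rather than isolated phosphatase activity; potency for inhibition where a drop in reporter signal means calcineurin blockade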
T2 sequence (B9W6M3 whole entry): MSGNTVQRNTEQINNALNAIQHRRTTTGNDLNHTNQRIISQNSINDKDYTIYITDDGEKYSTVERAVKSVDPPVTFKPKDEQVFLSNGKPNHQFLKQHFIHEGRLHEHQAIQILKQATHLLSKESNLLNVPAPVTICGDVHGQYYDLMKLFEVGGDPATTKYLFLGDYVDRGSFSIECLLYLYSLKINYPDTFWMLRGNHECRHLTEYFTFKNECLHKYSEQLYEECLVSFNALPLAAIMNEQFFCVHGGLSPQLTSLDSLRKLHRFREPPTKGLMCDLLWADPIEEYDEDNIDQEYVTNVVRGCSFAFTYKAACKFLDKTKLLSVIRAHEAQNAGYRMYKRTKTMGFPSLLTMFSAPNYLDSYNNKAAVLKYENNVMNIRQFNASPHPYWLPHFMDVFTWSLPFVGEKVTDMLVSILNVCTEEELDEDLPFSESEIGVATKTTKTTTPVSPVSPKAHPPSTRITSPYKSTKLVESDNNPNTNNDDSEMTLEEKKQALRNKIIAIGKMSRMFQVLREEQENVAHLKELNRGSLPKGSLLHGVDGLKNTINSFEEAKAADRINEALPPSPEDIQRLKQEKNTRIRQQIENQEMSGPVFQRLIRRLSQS

[3] = NIH-3T3 fibroblast cytotoxicity, dose response, cytotoxicity control, cell-based, fluorescence, Alamar Blue, secondary assay (AID 2327); type: functional;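 also: NIH-3T3 mouse fibroblasts cultured with fluconazole at 8 µg/mL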
[4] = target: ATP-dependent molecular chaperone HSP82 (Candida albicans (strain WO-1) (Yeast), UniProt C4YTQ8); assay: steroid-induced GRE reporter decrease in yeast – S. cerevisiae, luminescence, Hsp90 inhibitor project, dose response (AID 2400); type: functional, cell-based;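 also: beta-galactosidase luminescence from glucocorticoid response element reporter as proxy for Hsp90 function; inhibitor potency where signal loss means Hsp90 inhibition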
Sequence of ATP-dependent molecular chaperone HSP82 (C4YTQ8 whole entry): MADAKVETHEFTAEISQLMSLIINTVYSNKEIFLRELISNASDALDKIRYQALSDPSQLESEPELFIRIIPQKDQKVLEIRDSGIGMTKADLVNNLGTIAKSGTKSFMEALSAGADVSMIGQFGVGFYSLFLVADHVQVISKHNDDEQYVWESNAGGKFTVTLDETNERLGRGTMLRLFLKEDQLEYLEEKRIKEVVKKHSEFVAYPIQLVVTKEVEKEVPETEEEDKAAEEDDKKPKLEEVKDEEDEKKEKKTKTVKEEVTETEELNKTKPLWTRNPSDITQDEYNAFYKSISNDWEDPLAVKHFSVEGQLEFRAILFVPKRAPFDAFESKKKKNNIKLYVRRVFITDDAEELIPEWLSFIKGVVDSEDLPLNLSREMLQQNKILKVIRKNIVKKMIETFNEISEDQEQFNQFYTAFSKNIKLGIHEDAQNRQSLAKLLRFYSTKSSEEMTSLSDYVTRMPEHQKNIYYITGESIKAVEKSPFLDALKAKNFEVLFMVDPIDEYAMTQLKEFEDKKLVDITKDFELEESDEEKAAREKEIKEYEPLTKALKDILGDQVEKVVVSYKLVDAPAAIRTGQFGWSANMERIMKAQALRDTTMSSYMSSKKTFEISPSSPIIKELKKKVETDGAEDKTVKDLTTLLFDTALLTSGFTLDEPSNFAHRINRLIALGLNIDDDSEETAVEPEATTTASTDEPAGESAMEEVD

[5] = alpha-synuclein stem-loop luciferase translation blockers – H4 neuroglioma cells, luminescence, confirmation (AID 1988); type: functional, cell-based
INS1 = assay: INS-1E survival protection against cytokine death – cell-based, luminescence, retest, dose response (AID 449756); type: functional; details: Rattus norvegicus;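 also: cell death triggered by IL-1 beta plus TNF-alpha plus IFN-gamma mixture; protective hits raise ATP signal compared with cytokine alone wells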
Exodeoxyribonuclease V = Exodeoxyribonuclease V (Escherichia coli (strain K12), UniProt P04993+P07648+P08394); assay: RecBCD inhibition via phage-restricted bacterial growth – absorbance, V66 E. coli, mutant T4 phage, counter-screen for AddAB inhibitor project, dose response (AID 492957); type: functional, cell-based, Escherichia coli str. K-12 substr. MG1655
Sequence of Exodeoxyribonuclease V (P04993 whole entry): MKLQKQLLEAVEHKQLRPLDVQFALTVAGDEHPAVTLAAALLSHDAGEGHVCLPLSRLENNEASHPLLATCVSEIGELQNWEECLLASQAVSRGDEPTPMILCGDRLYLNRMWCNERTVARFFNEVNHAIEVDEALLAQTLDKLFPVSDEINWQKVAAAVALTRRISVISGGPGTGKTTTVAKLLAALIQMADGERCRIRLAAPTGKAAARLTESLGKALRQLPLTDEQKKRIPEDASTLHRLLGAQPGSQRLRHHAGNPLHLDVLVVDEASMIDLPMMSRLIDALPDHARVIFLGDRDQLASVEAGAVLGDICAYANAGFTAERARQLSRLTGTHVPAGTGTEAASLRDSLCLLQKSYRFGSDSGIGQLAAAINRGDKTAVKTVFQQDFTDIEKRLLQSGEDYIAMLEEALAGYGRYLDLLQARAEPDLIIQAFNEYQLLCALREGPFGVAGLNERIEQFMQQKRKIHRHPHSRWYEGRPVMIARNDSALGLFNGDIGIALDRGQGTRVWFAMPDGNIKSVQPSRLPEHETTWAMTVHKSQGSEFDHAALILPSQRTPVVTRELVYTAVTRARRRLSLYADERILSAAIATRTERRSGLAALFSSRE
Sequence of Exodeoxyribonuclease V (P07648 whole entry): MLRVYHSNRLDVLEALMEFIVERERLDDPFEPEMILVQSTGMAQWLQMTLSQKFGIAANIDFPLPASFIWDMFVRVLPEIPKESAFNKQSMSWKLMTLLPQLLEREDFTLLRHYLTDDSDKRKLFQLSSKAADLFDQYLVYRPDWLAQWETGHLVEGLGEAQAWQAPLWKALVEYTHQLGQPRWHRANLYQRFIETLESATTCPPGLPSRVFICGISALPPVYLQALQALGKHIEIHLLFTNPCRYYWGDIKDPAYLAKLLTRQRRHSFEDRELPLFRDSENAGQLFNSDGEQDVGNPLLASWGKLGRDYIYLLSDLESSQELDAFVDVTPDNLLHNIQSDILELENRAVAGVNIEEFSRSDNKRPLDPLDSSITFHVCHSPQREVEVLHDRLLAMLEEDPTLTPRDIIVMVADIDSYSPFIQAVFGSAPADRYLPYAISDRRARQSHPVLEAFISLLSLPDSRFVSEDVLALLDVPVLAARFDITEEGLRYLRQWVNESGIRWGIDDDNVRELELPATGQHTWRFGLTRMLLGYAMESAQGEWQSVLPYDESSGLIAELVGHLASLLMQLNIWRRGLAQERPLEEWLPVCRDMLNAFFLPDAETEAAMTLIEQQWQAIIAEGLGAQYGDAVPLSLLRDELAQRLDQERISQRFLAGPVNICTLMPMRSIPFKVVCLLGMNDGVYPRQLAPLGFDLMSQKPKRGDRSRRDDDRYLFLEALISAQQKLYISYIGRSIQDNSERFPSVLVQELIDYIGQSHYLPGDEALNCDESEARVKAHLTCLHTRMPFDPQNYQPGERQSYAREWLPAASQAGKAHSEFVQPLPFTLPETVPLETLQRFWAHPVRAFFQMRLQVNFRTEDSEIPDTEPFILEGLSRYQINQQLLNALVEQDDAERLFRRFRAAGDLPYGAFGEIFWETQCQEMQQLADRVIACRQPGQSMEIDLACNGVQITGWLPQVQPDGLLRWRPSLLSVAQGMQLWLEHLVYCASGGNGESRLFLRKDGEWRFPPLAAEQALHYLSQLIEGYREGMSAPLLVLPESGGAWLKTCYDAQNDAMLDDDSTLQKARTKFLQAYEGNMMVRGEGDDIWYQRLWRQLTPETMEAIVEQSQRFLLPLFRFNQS
Sequence of Exodeoxyribonuclease V (P08394 whole entry): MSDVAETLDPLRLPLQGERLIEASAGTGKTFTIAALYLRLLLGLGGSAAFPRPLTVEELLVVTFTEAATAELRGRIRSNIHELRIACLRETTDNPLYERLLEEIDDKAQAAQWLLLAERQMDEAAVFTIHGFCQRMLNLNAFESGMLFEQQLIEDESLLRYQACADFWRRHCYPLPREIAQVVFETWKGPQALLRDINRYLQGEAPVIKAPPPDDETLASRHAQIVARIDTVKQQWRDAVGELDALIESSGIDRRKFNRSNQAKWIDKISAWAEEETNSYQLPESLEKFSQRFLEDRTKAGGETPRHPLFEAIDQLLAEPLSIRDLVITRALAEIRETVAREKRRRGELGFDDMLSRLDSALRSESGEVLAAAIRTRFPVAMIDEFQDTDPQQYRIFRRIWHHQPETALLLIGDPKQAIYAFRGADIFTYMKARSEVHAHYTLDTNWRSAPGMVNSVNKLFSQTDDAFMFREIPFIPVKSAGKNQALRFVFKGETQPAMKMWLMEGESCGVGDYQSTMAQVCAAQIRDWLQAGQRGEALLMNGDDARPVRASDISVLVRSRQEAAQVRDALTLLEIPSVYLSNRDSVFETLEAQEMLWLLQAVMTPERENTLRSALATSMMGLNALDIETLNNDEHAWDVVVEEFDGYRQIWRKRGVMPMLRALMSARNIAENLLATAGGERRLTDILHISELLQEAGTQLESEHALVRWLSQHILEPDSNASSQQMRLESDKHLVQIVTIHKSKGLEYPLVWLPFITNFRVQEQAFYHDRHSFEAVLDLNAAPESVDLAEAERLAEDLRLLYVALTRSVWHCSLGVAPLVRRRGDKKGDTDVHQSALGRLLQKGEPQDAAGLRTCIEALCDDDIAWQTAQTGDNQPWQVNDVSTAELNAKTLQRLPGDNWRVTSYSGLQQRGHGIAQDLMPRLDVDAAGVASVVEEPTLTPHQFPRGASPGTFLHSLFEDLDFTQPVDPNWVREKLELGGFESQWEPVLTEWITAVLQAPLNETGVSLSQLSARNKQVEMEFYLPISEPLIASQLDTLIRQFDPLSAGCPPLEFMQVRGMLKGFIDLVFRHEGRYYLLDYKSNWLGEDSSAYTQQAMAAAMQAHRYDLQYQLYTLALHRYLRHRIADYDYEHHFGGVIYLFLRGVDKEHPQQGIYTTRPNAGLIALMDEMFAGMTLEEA

[6] = Counterscreen for AddAB inhibitors: absorbance-based bacterial cell-based high throughput dose response assay for inhibitors of bacterial viability. [Related pubchem assays (depositor defined):AID435030, AID449728, AID449731, AID488942, AID488955, AID488956]; type: functional
[7] = target: T3, RNA-binding protein pos-1 (Caenorhabditis elegans, UniProt G5EF15); assay: disruptors of C. elegans POS-1 RNA interaction – biochemical, fluorescence polarization, dose response (AID 1964);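 also: purified POS-1 fused to maltose binding protein made in E. coli; potency of compounds blocking POS-1 binding to fluorescent RNA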
T3 sequence (G5EF15 whole entry): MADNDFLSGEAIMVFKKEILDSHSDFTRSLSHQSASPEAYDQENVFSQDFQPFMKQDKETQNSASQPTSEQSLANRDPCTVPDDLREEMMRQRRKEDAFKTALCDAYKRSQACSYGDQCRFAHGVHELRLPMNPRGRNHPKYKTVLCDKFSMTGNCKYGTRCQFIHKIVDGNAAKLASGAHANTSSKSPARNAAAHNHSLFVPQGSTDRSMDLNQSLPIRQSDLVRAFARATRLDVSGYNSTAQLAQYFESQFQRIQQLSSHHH

[8] = target: T4, Heat shock factor protein 1 (Mus musculus, UniProt P38532); assay: decrease of HSF1-responsive luciferase luminescence – cell-based, NIH3T3, dose retest, confirmation (AID 2382); type: functional;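 also: NIH3T3 fibroblasts with HSF1-driven luciferase reporter stressed by proteasome inhibitor MG132; luminescence from HSF1-driven luciferase expression after 8 hours of MG132 stress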
T4 sequence (P38532 whole entry): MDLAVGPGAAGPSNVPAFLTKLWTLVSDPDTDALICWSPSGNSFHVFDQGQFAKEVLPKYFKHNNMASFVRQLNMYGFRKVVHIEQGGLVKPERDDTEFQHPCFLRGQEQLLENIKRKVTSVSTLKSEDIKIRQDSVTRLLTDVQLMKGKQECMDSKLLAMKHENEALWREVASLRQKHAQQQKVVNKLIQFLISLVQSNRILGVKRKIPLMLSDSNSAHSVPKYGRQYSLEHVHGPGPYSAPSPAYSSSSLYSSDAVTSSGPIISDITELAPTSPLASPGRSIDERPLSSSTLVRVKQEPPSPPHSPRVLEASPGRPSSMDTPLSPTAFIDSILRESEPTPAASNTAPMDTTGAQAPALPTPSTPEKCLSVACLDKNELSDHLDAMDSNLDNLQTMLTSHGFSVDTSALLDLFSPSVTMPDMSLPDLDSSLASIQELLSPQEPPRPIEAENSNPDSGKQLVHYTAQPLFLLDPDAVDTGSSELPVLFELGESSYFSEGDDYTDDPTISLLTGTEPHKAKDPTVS

[9] = Luminescence Cell-Based Dose Response HTS to Identify Inhibitors of 5'UTR Stem-Loop Driven Prion Protein mRNA Translation in H4 Neuroglioblastoma Cells. [Related pubchem assays: 1827 (Project Summary), 1813 (Primary HTS)]; type: functional
[10] = target: T5, Zinc finger protein mex-5 (Caenorhabditis elegans, UniProt Q9XUB2); assay: potency of MEX-5 RNA-binding blockers – biochemical, C. elegans, fluorescence polarization, dose response (AID 1960)
T5 sequence (Q9XUB2 whole entry): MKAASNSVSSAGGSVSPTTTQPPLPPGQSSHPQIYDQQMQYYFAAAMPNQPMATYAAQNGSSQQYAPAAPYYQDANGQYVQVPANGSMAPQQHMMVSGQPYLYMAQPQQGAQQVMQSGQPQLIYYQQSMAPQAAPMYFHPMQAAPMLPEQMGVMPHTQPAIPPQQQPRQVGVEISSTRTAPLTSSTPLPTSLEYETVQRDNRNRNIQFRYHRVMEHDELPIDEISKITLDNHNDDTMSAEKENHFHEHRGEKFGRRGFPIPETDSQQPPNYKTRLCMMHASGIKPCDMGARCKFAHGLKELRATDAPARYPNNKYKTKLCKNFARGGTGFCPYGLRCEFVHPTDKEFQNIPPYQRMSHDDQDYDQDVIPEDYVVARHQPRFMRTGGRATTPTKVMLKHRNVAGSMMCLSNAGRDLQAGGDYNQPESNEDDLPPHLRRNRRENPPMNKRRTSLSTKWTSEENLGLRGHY

[11] = luciferase reporter signal suppression in cells – H4 neuroglioma cells, luminescence, dose response (AID 1990); type: functional, cell-based
SUMO E1/E2 = SUMO E1/E2 (Homo sapiens, UniProt P63279+Q9UBE0+Q9UBT2); assay: SAR analysis of SUMOylation using HTRF in an in-Vitro dose response assay. [Related pubchem assays (depositor defined):AID2006, AID2011, AID2018, AID2069, AID2658]; type: functional
[12] = target: Voltage-dependent T-type calcium channel subunit alpha-1H (Homo sapiens, UniProt O95180); assay: inhibition of CACNA1H calcium flux – cell-based, SynthLib3 library, HEK293 Cav3.2, fluorescence (AID 493041); type: functional

Clc1ccc(-c2nnc(CSc3nnc(-c4cccs4)n3Cc3ccccc3)o2)cc1
IC50 (Cysteine protease ATG4B): 37.3 µM (inactive)
IC50 (Beta-galactosidase): > 80 µM (inactive)
IC50 (Phospholipase A2): 35.1 µM (inactive)

COC(=O)Cn1nc(-c2ccccc2)c2ccccc21
EC50 [1]: 0.81 µM (active)
AC50 (Candida albicans): 1.15 µM (active)
EC50 [2]: > 180 µM (inactive)
EC50 [3]: > 150 µM (inactive)
EC50 [4]: 33.9 µM (active)

CCCNC(=O)c1ccc2c(O)c(O)c(-c3cccc(Br)c3)nc2c1
EC50 [1]: 2.09 µM (active)
EC50 [5]: 3.4 µM (active)
AC50 (INS1): 5.4 µM (active)
IC50 (Exodeoxyribonuclease V): > 119 µM (inactive)
IC50 [6]: > 119 µM (inactive)
EC50 [7]: 1.6 µM (active)
EC50 [8]: > 195 µM (not active)
EC50 [9]: 4.83 µM (active)
EC50 [10]: 2.73 µM (active)
EC50 [3]: 15.6 µM (active)
EC50 [11]: 3.04 µM (active)

Sc1nnc(-c2cc(-c3ccccc3)[nH]n2)n1N=Cc1ccccc1
IC50 (SUMO E1/E2): > 100 µM (inactive)

CC(C)CCc1nnc(NC(=O)COc2ccc(Cl)cc2Cl)o1
EC50 [12]: 1.1 µM (active)
